What was measured:
Format in all cases: in vivo
[1] = tested on: nutsedge, yellow (yellow nutsedge, Cyperus esculentus); test: Test C preemergence; conditions: for Plant response rating (scale of 0 to 100), Nutsedge, Yellow: 31 g ai/ha, 0 is no effect, 100 is complete control; for Plant response rating, Nutsedge, Yellow: scale 0 to 100, 0 no effect, 100 complete control
Text: Seeds of plant species selected from blackgrass (Alopecurus myosuroides), ryegrass, Italian (Italian ryegrass, Lolium multiflorum), wheat (winter wheat, Triticum aestivum), Galium (catchweed bedstraw, Galium aparine), corn (Zea mays), crabgrass, large (large crabgrass, Digitaria sanguinalis), foxtail, giant (giant foxtail, Setaria faberii), johnsongrass (Sorghum halepense), lambsquarters (Chenopodium album), morningglory (Ipomoea coccinea), nutsedge, yellow (yellow nutsedge, Cyperus esculentus), pigweed (Amaranthus retroflexus), ragweed (common ragweed, Ambrosia elatior), soybean (Glycine max), barnyardgrass (Echinochloa crus-galli), oilseed rape (Brassica napus), waterhemp (common waterhemp, Amaranthus rudis) and velvetleaf (Abutilon theophrasti) were planted into a blend of loam soil and sand and treated preemergence with test chemicals formulated in a non-phytotoxic solvent mixture which included a surfactant.
At the same time, plants selected from these crop and weed species and also Kochia (Kochia scoparia), oat, wild (wild oat, Avena fatua), and chickweed (common chickweed, Stellaria media) were planted in pots containing Sunshine Redi-Earth® planting medium comprising spaghnum peat moss, vermiculite, starter nutrients and dolomitic limestone and treated with postemergence applications of test chemicals formulated in the same manner. Plants ranged in height from 2 to 18 cm (1- to 4-leaf stage) for postemergence treatments. Treated plants and controls were maintained in a greenhouse for 13 to 15 d, after which time all species were compared to controls and visually evaluated. Plant response ratings, summarized in Table C, are based on a scale of 0 to 100 where 0 is no effect and 100 is complete control. A dash (-) response means no test result.

[2] = tested on: barnyardgrass (Echinochloa crus-galli); test: Test A preemergence; conditions: preemergence
Procedure, shortened: (§1)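 Ratings of 0 (no effect) to 100 (complete control) come from visual comparison with untreated controls roughly 10 d after treatment. Test chemicals, formulated in a non-phytotoxic solvent mixture with surfactant, were applied either as a preemergence directed soil spray on seeded soil or postemergence to one- to two-leaf plants 2 to 10 cm tall.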

[3] = tested on: ragweed (common ragweed, Ambrosia elatior); test: Test A preemergence; conditions: preemergence
Procedure, shortened: as §1

Kochia (Kochia scoparia) [4] = test: Test A preemergence; conditions: preemergence
Procedure, shortened: as §1

[5] = tested on: ryegrass, Italian (Italian ryegrass, Lolium multiflorum); test: Test A preemergence; conditions: preemergence
Procedure, shortened: as §1

[6] = tested on: pigweed (Amaranthus retroflexus); test: Test A preemergence; conditions: preemergence
[7] = tested on: giant foxtail (Setaria faberii); test: Test A preemergence; conditions: preemergence
Procedure, shortened: as §1

rice (Oryra sativa) = test: Test B flooded paddy test; conditions: Flood, 500 g ai/ha; 0 to 100 scale where 0 is no effect and 100 is complete control; 13 to 15 d
Procedure, shortened: (§2)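 Response scored visually against untreated controls, 0 = no effect and 100 = complete control, 13–15 d after treatment in the greenhouse. Compounds added to paddy water held 3 cm above soil surface. Treatment given at 2-leaf stage.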

[8] = tested on: ducksalad (Heteranthera limosa); test: Test B flooded paddy test; conditions: Flood, 500 g ai/ha; 0 to 100 scale where 0 is no effect and 100 is complete control; 13 to 15 d
Procedure, shortened: as §2

[9] = tested on: sedge, umbrella (small-flower umbrella sedge, Cyperus difformis); test: Test B flooded paddy test; conditions: Flood, 500 g ai/ha; 0 to 100 scale where 0 is no effect and 100 is complete control; 13 to 15 d
Procedure, shortened: as §2

[10] = tested on: barnyardgrass (Echinochloa crus-galli); test: Test B flooded paddy test; conditions: Flood, 500 g ai/ha; 0 to 100 scale where 0 is no effect and 100 is complete control; 13 to 15 d
Procedure, shortened: as §2

[11] = tested on: wheat (Triticum aestivum); test: Test A postemergence; conditions: postemergence, 0 to 100 scale (0 no effect, 100 complete control)
Procedure, shortened: as §1

[12] = tested on: Galium (catchweed bedstraw, Galium aparine); test: Test A postemergence; conditions: postemergence, 0 to 100 scale (0 no effect, 100 complete control)
Procedure, shortened: as §1

[13] = tested on: barnyardgrass (Echinochloa crus-galli); test: Test A postemergence; conditions: postemergence, 0 to 100 scale (0 no effect, 100 complete control)
Procedure, shortened: as §1

corn (Zea mays) = test: Test A postemergence; conditions: postemergence, 0 to 100 scale (0 no effect, 100 complete control)
Procedure, shortened: as §1

[14] = tested on: blackgrass (Alopecurus myosuroides); test: Test A postemergence; conditions: postemergence, 0 to 100 scale (0 no effect, 100 complete control)
Procedure, shortened: as §1

[15] = tested on: ragweed (common ragweed, Ambrosia elatior); test: Test A postemergence; conditions: postemergence, 0 to 100 scale (0 no effect, 100 complete control)
Procedure, shortened: as §1

Kochia (Kochia scoparia) [16] = test: Test A postemergence; conditions: postemergence, 0 to 100 scale (0 no effect, 100 complete control)
Procedure, shortened: as §1

[17] = tested on: ryegrass, Italian (Italian ryegrass, Lolium multiflorum); test: Test A postemergence; conditions: postemergence, 0 to 100 scale (0 no effect, 100 complete control)
Procedure, shortened: as §1

[18] = tested on: pigweed (Amaranthus retroflexus); test: Test A postemergence; conditions: postemergence, 0 to 100 scale (0 no effect, 100 complete control)
Procedure, shortened: as §1

[19] = tested on: giant foxtail (Setaria faberii); test: Test A postemergence; conditions: postemergence, 0 to 100 scale (0 no effect, 100 complete control)
Procedure, shortened: as §1

[20] = 125 g ai/ha, visual rating after approx. 10 d, 0 to 100 scale where 0 is no effect and 100 is complete control
[21] = 500 g ai/ha, 0 to 100 scale, 0 = no effect, 100 = complete control
[22] = 125 g ai/ha, visual injury after approximately 10 d
[23] = 500 g ai/ha, visual injury, approx. 10 d

Structure (SMILES)	Plant response rating (scale of 0 to 100), Nutsedge, Yellow [1]	Plant response rating, Nutsedge, Yellow ([1]; 62 g ai/ha)	Plant response rating, Nutsedge, Yellow ([1]; 125 g ai/ha)	Plant response rating, Nutsedge, Yellow ([1]; 250 g ai/ha)	Plant response rating, Barnyardgrass [2, 20]	Plant response rating, Barnyardgrass [2, 21]	Plant response rating, Ragweed [3, 20]	Plant response rating, Ragweed [3, 21]	Plant response rating, Kochia (Kochia (Kochia scoparia) [4]; [20])	Plant response rating, Kochia (Kochia (Kochia scoparia) [4]; [21])	Plant response rating, Ryegrass, Italian [5, 20]	Plant response rating, Ryegrass, Italian [5, 21]	Plant response rating, Pigweed [6, 20]	Plant response rating, Pigweed [6, 21]	Plant response rating, Foxtail, Giant [7, 20]	Plant response rating, Foxtail, Giant [7, 21]	Plant response rating, Rice (rice (Oryra sativa))	Plant response rating, Ducksalad [8]	Plant response rating, Sedge, Umbrella [9]	Plant response rating, Barnyardgrass [10]	further results
O=C1NCC(c2cccc(OC(F)(F)C(F)F)c2)C1C(=O)Nc1cccc(F)c1F (racemic) [Compound 697]	0	0	0	0	90	90	50	60	30	80	40	50	50	50	90	90	0	90	0	90	Plant response rating, Wheat [11, 22]: 20; Plant response rating, Wheat [11, 23]: 40; Plant response rating, Galium [12, 22]: 50; Plant response rating, Galium [12, 23]: 50; Plant response rating, Barnyardgrass [13, 22]: 80; Plant response rating, Barnyardgrass [13, 23]: 90; Plant response rating, Corn (corn (Zea mays); [22]): 70; Plant response rating, Corn (corn (Zea mays); [23]): 80; Plant response rating, Blackgrass [14, 22]: 30; Plant response rating, Blackgrass [14, 23]: 40; Plant response rating, Ragweed [15, 22]: 30; Plant response rating, Ragweed [15, 23]: 50; Plant response rating, Kochia (Kochia (Kochia scoparia) [16]; [22]): 60; Plant response rating, Kochia (Kochia (Kochia scoparia) [16]; [23]): 60; Plant response rating, Ryegrass, Italian [17, 22]: 20; Plant response rating, Ryegrass, Italian [17, 23]: 30; Plant response rating, Pigweed [18, 22]: 50; Plant response rating, Pigweed [18, 23]: 50; Plant response rating, Foxtail, Giant [19, 22]: 80; Plant response rating, Foxtail, Giant [19, 23]: 80
O=C1NCC(c2cccc(OC(F)(F)C(F)F)c2)C1C(=O)Nc1ccc(F)c(F)c1F (racemic) [Compound 698]	0	0	0	0	80	90	0	50	50	40	30	60	50	50	90	90	0	90	0	50	Plant response rating, Wheat [11, 22]: 30; Plant response rating, Wheat [11, 23]: 40; Plant response rating, Galium [12, 22]: 50; Plant response rating, Galium [12, 23]: 50; Plant response rating, Barnyardgrass [13, 22]: 70; Plant response rating, Barnyardgrass [13, 23]: 80; Plant response rating, Corn (corn (Zea mays); [22]): 80; Plant response rating, Corn (corn (Zea mays); [23]): 80; Plant response rating, Blackgrass [14, 22]: 30; Plant response rating, Blackgrass [14, 23]: 40; Plant response rating, Ragweed [15, 22]: 20; Plant response rating, Ragweed [15, 23]: 40; Plant response rating, Kochia (Kochia (Kochia scoparia) [16]; [22]): 50; Plant response rating, Kochia (Kochia (Kochia scoparia) [16]; [23]): 60; Plant response rating, Ryegrass, Italian [17, 22]: 30; Plant response rating, Ryegrass, Italian [17, 23]: 30; Plant response rating, Pigweed [18, 22]: 40; Plant response rating, Pigweed [18, 23]: 60; Plant response rating, Foxtail, Giant [19, 22]: 80; Plant response rating, Foxtail, Giant [19, 23]: 80
O=C1NCC(c2ccc(I)cc2)C1C(=O)Nc1cccc(F)c1F (racemic) [Compound 700]	0	0	0	0	90	90	0	60	30	70	0	30	40	60	90	90	0	100	0	85	Plant response rating, Wheat [11, 22]: 0; Plant response rating, Wheat [11, 23]: 60; Plant response rating, Galium [12, 22]: 40; Plant response rating, Galium [12, 23]: 60; Plant response rating, Barnyardgrass [13, 22]: 70; Plant response rating, Barnyardgrass [13, 23]: 70; Plant response rating, Corn (corn (Zea mays); [22]): 0; Plant response rating, Corn (corn (Zea mays); [23]): 70; Plant response rating, Blackgrass [14, 22]: 0; Plant response rating, Blackgrass [14, 23]: 50; Plant response rating, Ragweed [15, 22]: 20; Plant response rating, Ragweed [15, 23]: 30; Plant response rating, Kochia (Kochia (Kochia scoparia) [16]; [22]): 30; Plant response rating, Kochia (Kochia (Kochia scoparia) [16]; [23]): 60; Plant response rating, Ryegrass, Italian [17, 22]: 30; Plant response rating, Ryegrass, Italian [17, 23]: 40; Plant response rating, Pigweed [18, 22]: 0; Plant response rating, Pigweed [18, 23]: 30; Plant response rating, Foxtail, Giant [19, 22]: 70; Plant response rating, Foxtail, Giant [19, 23]: 90

Reference: patent publication US12077503B2, “Substituted cyclic amides and their use as herbicides” (FMC CORPORATION, priority 2015, dated 2024)
